The values below come from ChEMBL document CHEMBL1141902, “Functionalization at position 3 of the phenyl ring of the potent mGluR5 noncompetitive antagonists MPEP” (Bioorg Med Chem Lett, 2005).

A value given as a limit tells only on which side of the number the result lay.

In experiment [1] the target is T1, Metabotropic glutamate receptor 5 (Rattus norvegicus, UniProt P31424). Nature of the experiment: Concentration required for 50% inhibition of rat metabotropic glutamate receptor 5 was determined using inositol phosphate hydrolysis assay.
T1 sequence (P31424 whole entry): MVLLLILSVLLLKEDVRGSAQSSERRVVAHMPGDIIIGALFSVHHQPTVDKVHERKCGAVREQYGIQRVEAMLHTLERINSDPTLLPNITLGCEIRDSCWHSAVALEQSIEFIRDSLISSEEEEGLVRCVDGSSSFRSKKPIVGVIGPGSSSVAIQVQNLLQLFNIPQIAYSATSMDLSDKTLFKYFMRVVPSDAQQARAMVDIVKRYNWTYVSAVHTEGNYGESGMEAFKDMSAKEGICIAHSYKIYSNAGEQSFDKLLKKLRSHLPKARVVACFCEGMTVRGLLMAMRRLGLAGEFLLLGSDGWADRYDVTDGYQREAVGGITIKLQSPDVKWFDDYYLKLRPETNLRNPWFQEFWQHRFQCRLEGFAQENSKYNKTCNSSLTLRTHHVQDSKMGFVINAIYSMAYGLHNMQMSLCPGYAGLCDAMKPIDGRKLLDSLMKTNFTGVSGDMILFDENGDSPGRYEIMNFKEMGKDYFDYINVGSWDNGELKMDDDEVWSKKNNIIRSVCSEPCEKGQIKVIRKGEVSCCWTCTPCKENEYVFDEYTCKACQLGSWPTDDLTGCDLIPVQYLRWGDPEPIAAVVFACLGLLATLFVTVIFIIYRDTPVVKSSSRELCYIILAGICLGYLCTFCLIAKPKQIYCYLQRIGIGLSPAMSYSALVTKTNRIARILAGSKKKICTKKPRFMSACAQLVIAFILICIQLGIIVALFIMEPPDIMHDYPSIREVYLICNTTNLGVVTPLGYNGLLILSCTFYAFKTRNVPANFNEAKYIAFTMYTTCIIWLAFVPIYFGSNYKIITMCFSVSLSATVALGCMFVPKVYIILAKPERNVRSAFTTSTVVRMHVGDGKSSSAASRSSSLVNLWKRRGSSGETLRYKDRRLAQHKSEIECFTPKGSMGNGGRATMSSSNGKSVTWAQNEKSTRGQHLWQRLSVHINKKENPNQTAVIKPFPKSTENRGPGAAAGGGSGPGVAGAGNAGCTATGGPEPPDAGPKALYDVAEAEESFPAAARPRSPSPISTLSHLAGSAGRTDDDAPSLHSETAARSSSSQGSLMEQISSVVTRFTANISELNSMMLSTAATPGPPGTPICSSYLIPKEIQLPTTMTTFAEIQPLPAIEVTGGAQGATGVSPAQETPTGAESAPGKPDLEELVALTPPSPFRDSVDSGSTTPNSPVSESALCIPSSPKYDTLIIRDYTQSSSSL
Experiment [2] concerns the target T1, Metabotropic glutamate receptor 5. Nature of the experiment: In vitro binding affinity of compound towards rat metabotropic glutamate receptor 5 was determined by displacement of [3H]M-MPEP from rat whole brain.

As for `COc1cccc(COc2cccc(C#Cc3cccc(C)n3)c2)c1`, the midpoint of inhibition in experiment [1], the IC50, lay at 1300 nM.

Regarding `Cc1cccc(C#Cc2cccc(C#N)c2)n1`, in experiment [1], it took 5 nM to reach half-maximal inhibition (IC50). This IC50 lies about 260-fold lower than the previous one.

The compound `C=CCOc1cccc(C#Cc2cccc(C)n2)c1` yielded an IC50 in experiment [1] of 290 nM.

`Cc1cccc(C#Cc2cccc(OCCc3ccccc3)c2)n1` had an IC50 in experiment [1] of 1590 nM.

As for `Cc1cccc(C#Cc2cccc(OC(=O)CCCBr)c2)n1`, in experiment [1], 3350 nM corresponded to half-maximal inhibition (IC50).

In experiment [1], `Cc1cccc(C#Cc2cncc(-c3ccccc3)c2)n1` came in with an IC50 of 20 nM. Also, in experiment [2], the inhibition constant Ki is 1.7 nM.

Consider `COc1cccc(C#Cc2cccc(C)n2)c1` [M-MPEP], for which, in experiment [1], the IC50 was determined as 8 nM.

As for `Cc1cccc(C#Cc2cccc(OC(=O)c3ccccc3)c2)n1`, in experiment [1], the midpoint of inhibition, the IC50, lay at 1500 nM.

On to `Cc1cccc(C#Cc2cncc(-c3cccc(C)n3)c2)n1`, for which inhibition in experiment [1] was half-maximal at 257 nM (IC50). The same compound returned a Ki in experiment [2] of 13 nM.

In the case of `Cc1cccc(C#Cc2cncc(-c3cccs3)c2)n1`, in experiment [1], half-maximal inhibition (IC50) was put at 271 nM. This compound returned a Ki in experiment [2] of 155 nM.

With `Cc1cccc(C#Cc2cccc(OCc3ccccc3)c2)n1`, in experiment [1], half-maximal inhibition (IC50) was put at 1840 nM. This lies in the single-digit micromolar range.

As for `Cc1cccc(C#Cc2cccc(OCC3CC3)c2)n1`, in experiment [1], the 50% inhibitory concentration (IC50) amounted to 420 nM.

In turn, `Cc1cccc(C#Cc2cccc(-c3ccco3)c2)n1` showed an IC50 in experiment [1] of 371 nM. In experiment [2], the inhibitory constant (Ki) is 36 nM.

`Cc1cccc(C#Cc2cccc(N)c2)n1` gave an IC50 in experiment [1] of 188 nM.

In turn, `COC(=O)COc1cccc(C#Cc2cccc(C)n2)c1` had a concentration for half-maximal inhibition (IC50) in experiment [1] of 2400 nM. This IC50 lies about 13-fold higher than the previous one.

`Cc1cccc(C#Cc2cccc(OC(=O)Cc3ccccc3)c2)n1` showed an IC50 in experiment [1] of 740 nM.

Turning to `Cc1ccc(S(=O)(=O)Oc2cccc(C#Cc3cccc(C)n3)c2)cc1`, in experiment [1], the IC50 was > 10000 nM.

In experiment [1], `Cc1cccc(C#Cc2cncc(-c3ccco3)c2)n1` yielded an IC50 of 205 nM. Besides, the affinity in experiment [2], expressed as Ki, was 6.5 nM.

Compound `Cc1cccc(C#Cc2cccc(OCCCCc3ccccc3)c2)n1` gave an IC50 in experiment [1] of 1160 nM.

In experiment [1], `Cc1cccc(C#Cc2cccc(OC(=O)c3cccc(I)c3)c2)n1` yielded an IC50 of 1100 nM.

`COC(=O)c1cccc(C#Cc2cccc(C)n2)c1` showed an IC50 in experiment [1] of 208 nM.

Take `COc1cccc(C(=O)Oc2cccc(C#Cc3cccc(C)n3)c2)c1`: in experiment [1], the IC50 was 1720 nM.

Turning to `Cc1cccc(C#Cc2cccc(-c3cccs3)c2)n1`, in experiment [1], the IC50 came to 656 nM. In experiment [2], this compound had a Ki of 147 nM.

In turn, `COc1cccc(-c2cncc(C#Cc3cccc(C)n3)c2)c1` came in with an IC50 in experiment [1] of 282 nM. The Ki in experiment [2] worked out at 74 nM.

`Cc1cccc(C#Cc2cccc(OC(=O)CCCc3ccccc3)c2)n1` came in with an IC50 in experiment [1] of 1170 nM.

Compound `Cc1cccc(C#Cc2cccc(OCCCc3ccccc3)c2)n1` had a half-maximal inhibitory concentration (IC50) in experiment [1] of 1190 nM.

For `Cc1cccc(C#Cc2cccc(OC(=O)c3ccco3)c2)n1`, the midpoint of inhibition in experiment [1], the IC50, lay at 1010 nM.

For `Cc1cccc(C#Cc2cccc(OC(=O)CCc3ccccc3)c2)n1`, the half-maximal inhibitory concentration (IC50) in experiment [1] turned out to be 890 nM.

Consider `Cc1cccc(C#Cc2cccc([N+](=O)[O-])c2)n1`, for which, in experiment [1], the IC50 was determined as 13 nM.

Compound `Cc1cccc(C#Cc2cccc(-c3ccccc3)c2)n1` showed an IC50 in experiment [1] of 629 nM. Besides, the affinity in experiment [2] corresponds to a Ki of 993 nM.

Take `Cc1cccc(C#Cc2cccc(OCc3cccc(I)c3)c2)n1`: the 50% inhibitory concentration (IC50) in experiment [1] was determined as 1980 nM. In other words, the single-digit micromolar range.

Turning to `Cc1cccc(C#Cc2cccc(OCCc3ccc(F)cc3)c2)n1`, the midpoint of inhibition in experiment [1], the IC50, lay at 2050 nM.

The compound `COc1cccc(-c2cccc(C#Cc3cccc(C)n3)c2)c1` came in with a 50% inhibitory concentration (IC50) in experiment [1] of 493 nM. The inhibition constant (Ki) in experiment [2] worked out at 2360 nM.

For `CC(=O)c1cccc(C#Cc2cccc(C)n2)c1`, it took 146 nM to reach half-maximal inhibition in experiment [1] (IC50). This counts as sub-micromolar.

`Cc1cccc(C#Cc2cccc(OS(C)(=O)=O)c2)n1` returned an IC50 in experiment [1] of 180 nM.
